{"source": "patent US11154554B2", "about": "“Therapeutic combinations of a MEK inhibitor and a BTK inhibitor” (Acerta Pharma B.V., priority 2015, dated 2021)", "key": {"[1]": {"system": "human platelet-mediated thrombus formation", "assay": "In vivo human thrombus formation in VWF HA1 mice (laser injury)", "conditions": "human platelets preincubated with inhibitor, laser-induced injury"}, "B cell receptor": {"system": "B cell receptor", "assay": "Whole blood B cell receptor signalling assay (CD69 on CD19+ B cells)", "format": "cell-based", "conditions": "whole blood of four healthy donors, 2 hours with compound, anti-human IgD 10 μg/mL for 18 hours, read-out: EC50, CD69 on gated CD19+ B cells"}, "GPVI [2]": {"system": "GPVI", "assay": "GPVI platelet aggregation"}, "NK cells [3]": {"system": "NK cells", "assay": "Rituximab ADCC mediated by NK cells", "format": "cell-based"}, "CD8^+ T cells [4]": {"system": "CD8^+ T cells", "assay": "Cytotoxicity assay for CD8+ T cell function", "format": "cell-based", "conditions": "relative to vehicle"}, "CD8^+ T cells [5]": {"system": "CD8^+ T cells", "assay": "IFN-γ level measurements for CD8+ T cell function", "format": "cell-based", "conditions": "relative to vehicle"}, "[6]": {"conditions": "within the tested dose range (through 840 mg); cited from earlier work"}, "GPVI [7]": {"system": "GPVI"}, "CYP3A4": {"target": "CYP3A4 (Homo sapiens, UniProt P08684)", "sequence (P08684 whole entry)": "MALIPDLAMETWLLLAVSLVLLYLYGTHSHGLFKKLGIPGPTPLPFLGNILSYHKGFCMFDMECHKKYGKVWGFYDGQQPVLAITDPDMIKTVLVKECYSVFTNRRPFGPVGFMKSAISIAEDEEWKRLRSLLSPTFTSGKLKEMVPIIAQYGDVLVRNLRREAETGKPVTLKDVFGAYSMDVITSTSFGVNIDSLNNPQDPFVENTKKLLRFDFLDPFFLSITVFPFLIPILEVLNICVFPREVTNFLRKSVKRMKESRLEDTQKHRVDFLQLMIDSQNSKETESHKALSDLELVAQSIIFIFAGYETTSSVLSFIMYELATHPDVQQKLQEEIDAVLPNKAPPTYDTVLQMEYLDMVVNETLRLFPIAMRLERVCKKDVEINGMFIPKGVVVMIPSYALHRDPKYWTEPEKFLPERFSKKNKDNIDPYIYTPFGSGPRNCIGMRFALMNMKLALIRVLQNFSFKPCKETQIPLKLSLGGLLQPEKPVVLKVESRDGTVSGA", "assay": "Loss of parent drug as catalyzed by CYPs", "format": "in vitro ADME", "conditions": "in vitro"}, "hepatocytes": {"system": "hepatocytes", "assay": "In vitro metabolism in hepatocytes with 14C-labeled drug", "format": "in vitro ADME, mouse, rat, dog, rabbit, monkey, and human"}, "BTK": {"target": "T1, BTK (Mus musculus, UniProt P35991)", "T1 construct": "MDSCs were purified from tumor bearing PDA mice; endogenous in cells; host or cells: granulocytic and monocytic MDSCs from PDA mice dosed in vivo", "assay": "Molecular probe assay of BTK occupancy in MDSCs of PDA mice", "format": "in vivo", "conditions": "15 mg/kg BID; granulocytic and monocytic MDSC compartments; Day 8, 4 hours post dose", "excerpt": "A molecular probe assay was used to calculate the percent irreversible occupancy of total BTK."}, "[8]": {"assay": "Glutathione binding and depletion in vitro", "format": "in vitro ADME"}, "EGFR": {"target": "EGFR (Homo sapiens, UniProt P00533)", "sequence (P00533 25-1210)": "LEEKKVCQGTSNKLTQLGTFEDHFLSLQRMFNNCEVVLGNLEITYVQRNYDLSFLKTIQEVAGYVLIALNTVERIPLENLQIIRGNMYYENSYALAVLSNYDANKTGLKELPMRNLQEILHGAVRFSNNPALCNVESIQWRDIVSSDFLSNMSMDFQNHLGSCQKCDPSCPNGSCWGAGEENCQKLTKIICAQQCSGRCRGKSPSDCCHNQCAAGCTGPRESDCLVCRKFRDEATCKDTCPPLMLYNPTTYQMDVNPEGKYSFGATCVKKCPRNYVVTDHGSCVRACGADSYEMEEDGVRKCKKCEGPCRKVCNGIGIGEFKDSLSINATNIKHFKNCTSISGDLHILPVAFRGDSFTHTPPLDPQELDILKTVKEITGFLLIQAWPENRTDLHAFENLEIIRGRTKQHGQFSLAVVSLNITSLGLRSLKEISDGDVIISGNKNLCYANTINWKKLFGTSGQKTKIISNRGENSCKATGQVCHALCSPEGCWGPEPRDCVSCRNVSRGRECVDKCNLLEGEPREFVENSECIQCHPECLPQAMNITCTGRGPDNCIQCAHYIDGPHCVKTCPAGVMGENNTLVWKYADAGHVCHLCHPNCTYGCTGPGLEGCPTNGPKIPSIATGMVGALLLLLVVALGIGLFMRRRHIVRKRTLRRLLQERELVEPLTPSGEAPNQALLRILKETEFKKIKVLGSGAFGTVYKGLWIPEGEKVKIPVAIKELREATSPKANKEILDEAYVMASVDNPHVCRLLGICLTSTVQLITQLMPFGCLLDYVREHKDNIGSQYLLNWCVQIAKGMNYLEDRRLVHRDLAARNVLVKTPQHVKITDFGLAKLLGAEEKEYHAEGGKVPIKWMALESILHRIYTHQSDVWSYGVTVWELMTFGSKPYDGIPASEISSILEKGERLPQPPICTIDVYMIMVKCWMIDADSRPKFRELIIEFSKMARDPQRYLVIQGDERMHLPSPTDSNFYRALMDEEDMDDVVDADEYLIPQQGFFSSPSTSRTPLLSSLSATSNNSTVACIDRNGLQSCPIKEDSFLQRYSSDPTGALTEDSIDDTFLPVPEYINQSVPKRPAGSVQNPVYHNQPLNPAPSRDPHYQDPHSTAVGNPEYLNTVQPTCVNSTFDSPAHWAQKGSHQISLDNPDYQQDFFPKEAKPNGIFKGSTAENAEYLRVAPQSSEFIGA", "assay": "EGF receptor phosphorylation in A431 cells"}, "[9]": {"assay": "Metabolism in plasma, bile, and urine", "format": "in vivo", "conditions": "rats, dogs, and monkeys; preliminary evaluations"}, "NK cells [10]": {"system": "NK cells", "assay": "NK cell degranulation/ADCC whole blood assay with obinutuzumab", "format": "cell-based, human", "conditions": "1 hour pretreatment, MEC-1 opsonised with obinutuzumab 1 μg/mL, 4 hours"}, "[11]": {"system": "80 known pharmacologic targets such as G-protein-coupled receptors, nuclear receptors, proteases, and ion channels", "assay": "Binding assays on 80 known pharmacologic targets", "conditions": "screened at 10 μM"}, "[12]": {"system": "KrasLA2 non-small cell lung cancer (NSCLC) model", "assay": "KrasLA2 genetic tumor model of NSCLC", "format": "in vivo, mice", "conditions": "15 mg/kg", "excerpt": "The model is designed to have sporadic expression in single cells of G12D mutant Kras off its own promoter triggered by spontaneous intrachromosomal recombination. Johnson, et al. Nature 2001, 410, 1111-16. While the mutant Kras protein is expressed in a few cells in all tissues, tumor development is seen only in the lung at high penetrance."}, "CYP enzymes": {"system": "CYP enzymes", "assay": "Nonclinical CYP interaction studies", "format": "in vitro ADME"}, "[13]": {"system": "BCR activation markers CD69 and CD86", "assay": "In vivo potency, BCR activation markers after oral gavage", "conditions": "mice, 3 hours post-dose, BCR stimulated with IgM", "method": "Mice were gavaged at increasing drug concentration and sacrificed at one time point (3 hours post-dose). BCR is stimulated with IgM and the expression of activation markers CD69 and CD86 are monitored by flow cytometry to determine ECovalues.\nCD86 and CD69 are cell surface proteins that are BCR activation markers. […] BCR was stimulated with IgM and the expression of activation marker CD69 and CD86 are monitored by flow cytometry to determine EC50 values."}}, "note": "Where two headings read alike, the source gives them in different places.", "data": [{"molecule": "C=CC(=O)Nc1cccc(Nc2nc(Nc3ccc(OCCOC)cc3)ncc2F)c1", "note": "[Formula (17), N-(3-((5-fluoro-2-((4-(2-methoxyethoxy)phenyl)amino)pyrimidin-4-yl)amino)phenyl)acrylamide, reference compound]", "values": [{"measurement": "effect on human platelet-mediated thrombus formation", "setting": "[1]", "result": "effect similar to Formula (10) (ibrutinib)"}, {"measurement": "EC50", "setting": "B cell receptor", "result": 121, "unit": "nM"}]}, {"molecule": "C=CC(=O)N1CCC[C@@H](n2nc(-c3ccc(Oc4ccccc4)cc3)c3c(N)ncnc32)C1", "note": "[Formula (10), 1-[(3R)-3-[4-amino-3-(4-phenoxyphenyl)-1H-pyrazolo[3,4-d]pyrimidin-1-yl]piperidin-1-yl]prop-2-en-1-one, reference compound]", "values": [{"measurement": "inhibition of GPVI platelet aggregation", "setting": "GPVI [2]; human platelets, CVX-induced", "result": "significantly inhibits"}, {"measurement": "antagonism of rituximab ADCC effects mediated by NK cells", "setting": "NK cells [3]", "result": "undesirably antagonizes"}, {"measurement": "CD8+ T cell function as measured by % cytotoxicity", "setting": "CD8^+ T cells [4]", "result": "affects CD8^+ T cell function"}, {"measurement": "CD8+ T cell function as measured by IFN-γ level", "setting": "CD8^+ T cells [5]", "result": "affects CD8^+ T cell function"}, {"measurement": "EC50", "setting": "B cell receptor", "result": 6.1, "unit": "nM"}, {"measurement": "maximum tolerated dose (MTD)", "setting": "[6]", "result": "No maximum tolerated dose (MTD) was apparent"}]}, {"molecule": "CC#CC(=O)N1CCC[C@H]1c1nc(-c2ccc(C(=O)Nc3ccccn3)cc2)c2c(N)nccn12", "note": "[Formula (2), (S)-4-(8-amino-3-(1-(but-2-ynoyl)pyrrolidin-2-yl)imidazo[1,5-a]pyrazin-1-yl)-N-(pyridin-2-yl)benzamide]", "values": [{"measurement": "inhibition of GPVI platelet aggregation", "setting": "GPVI [7]", "result": "does not"}, {"measurement": "CYP responsible for metabolism", "setting": "CYP3A4", "result": "metabolized by CYP3A4"}, {"measurement": "unique human metabolite", "setting": "hepatocytes; hepatocytes of six species", "result": "No unique human metabolite was identified"}, {"measurement": "metabolites in hepatocytes", "setting": "hepatocytes; mouse, rat, dog, rabbit, monkey, and human hepatocytes, 14C-labeled drug", "result": "two mono-oxidized metabolites and a glutathione conjugate"}, {"measurement": "irreversible occupancy of total BTK in MDSCs", "setting": "BTK", "result": "Complete BTK occupancy"}, {"measurement": "effect on human platelet-mediated thrombus formation", "setting": "[1]", "result": "no significant effect"}, {"measurement": "IC50", "setting": "GPVI [2]; read-out: IC50, GPVI platelet aggregation, purified human platelets, Convulxin (CVX)", "result": 1150, "unit": "nM"}, {"measurement": "antagonism of rituximab ADCC effects mediated by NK cells", "setting": "NK cells [3]", "result": "does not antagonize"}, {"measurement": "glutathione binding and depletion", "setting": "[8]", "result": "binds to glutathione but does not deplete glutathione"}, {"measurement": "inhibition of in vitro EGFR phosphorylation", "setting": "EGFR; 10 μM, A431 human epidermoid cancer cell line", "result": "no inhibition"}, {"measurement": "inhibition at 10 µM", "setting": "EGFR; A-431, read-out: EGF-induced p-EGFR inhibition", "result": 7, "unit": "%"}, {"measurement": "CD8+ T cell function as measured by % cytotoxicity", "setting": "CD8^+ T cells [4]", "result": "no effect"}, {"measurement": "metabolic processes in plasma, bile, and urine", "setting": "[9]", "result": "metabolic processes of oxidation, glutathione binding, and hydrolysis"}, {"measurement": "effect on CD56+/CD107a+ NK cells, obinutuzumab-stimulated degranulation", "setting": "NK cells [10]", "result": "minimal effect"}, {"measurement": "activity in binding assays with 80 known pharmacologic targets", "setting": "[11]", "result": "significant activity only against the A3 adenosine receptor"}, {"measurement": "CD8+ T cell function as measured by IFN-γ level", "setting": "CD8^+ T cells [5]", "result": "no effect"}, {"measurement": "EC50", "setting": "B cell receptor", "result": 8.2, "unit": "nM"}, {"measurement": "effects on TAMs, MDSCs, Tregs, and CD8+ cells", "setting": "[12]", "result": "consistent with suppression of the solid tumor microenviroment"}, {"measurement": "number of tumors", "setting": "[12]", "result": "fewer overall tumors"}, {"measurement": "tumor volumes versus vehicle", "setting": "[12]", "result": "significant decrease"}, {"measurement": "potential for CYP-mediated drug-drug interactions", "setting": "CYP enzymes", "result": "very unlikely to cause clinical drug-drug interactions"}, {"measurement": "in vivo potency at inhibiting expression of activation markers CD69 and CD86", "setting": "[13]", "result": "more potent at inhibiting expression of activation makers than Formula (10) (ibrutinib)"}]}]}
